The target of one experiment is human PDE2A1 (Homo sapiens (Human), UniProt O00408). As to the kind of experiment: PDE selectivity IMAP FP assay, human PDE2A1. It counts as biochemical. The conditions noted are these: Human PDE2; Lab B; read-out: Human PDE2 Ki (nM) Lab B. A digest of the protocol: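 IMAP fluorescence polarization assay; PDE2 substrate 50 nM FAM-cAMP containing 1000 nM cGMP, enzyme diluted for 20% substrate conversion, in 10 mM Tris HCl pH 7.2, 10 mM MgCl2, 1 mM DTT. Reaction 60 min at room temperature, stopped with IMAP binding solution; polarization read after 1 h. Ki reported.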
Sequence of human PDE2A1 (O00408 other isoform, or with tags, fused parts or gaps): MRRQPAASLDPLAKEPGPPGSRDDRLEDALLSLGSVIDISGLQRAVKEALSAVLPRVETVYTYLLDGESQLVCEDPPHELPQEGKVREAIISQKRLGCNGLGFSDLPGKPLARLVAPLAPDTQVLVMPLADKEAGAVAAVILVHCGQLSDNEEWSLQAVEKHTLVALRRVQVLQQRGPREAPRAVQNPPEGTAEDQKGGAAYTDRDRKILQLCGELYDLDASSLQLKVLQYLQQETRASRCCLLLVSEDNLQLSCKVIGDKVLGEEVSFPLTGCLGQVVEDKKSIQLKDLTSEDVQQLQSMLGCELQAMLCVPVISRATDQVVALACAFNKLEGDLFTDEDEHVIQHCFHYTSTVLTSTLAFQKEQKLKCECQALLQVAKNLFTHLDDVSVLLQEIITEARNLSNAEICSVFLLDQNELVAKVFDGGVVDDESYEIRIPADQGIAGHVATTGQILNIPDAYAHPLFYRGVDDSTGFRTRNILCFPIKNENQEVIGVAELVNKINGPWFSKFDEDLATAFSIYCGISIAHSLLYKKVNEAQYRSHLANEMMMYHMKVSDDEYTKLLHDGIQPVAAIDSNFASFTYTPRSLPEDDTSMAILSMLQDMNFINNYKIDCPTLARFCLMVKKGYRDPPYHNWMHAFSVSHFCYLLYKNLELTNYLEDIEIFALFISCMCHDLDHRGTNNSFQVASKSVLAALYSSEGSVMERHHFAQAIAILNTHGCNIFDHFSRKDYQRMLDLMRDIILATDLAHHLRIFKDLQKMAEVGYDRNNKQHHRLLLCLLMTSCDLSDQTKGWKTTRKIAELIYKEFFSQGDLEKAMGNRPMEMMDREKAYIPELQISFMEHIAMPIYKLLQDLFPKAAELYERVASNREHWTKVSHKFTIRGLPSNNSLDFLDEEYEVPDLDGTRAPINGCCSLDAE

Another experiment deals with Rhesus PDE2A3 (Macaca mulatta, UniProt B3VTJ2). As to the kind of experiment: PDE2 fluorescence polarization (IMAP FP) assay, rhesus PDE2A3. It counts as biochemical, rhesus macaque. The conditions noted are these: Lab B, read-out: Rhesus PDE2 Ki (nM) Lab B. Background: Polarisation of emitted light reports the rotation of a fluorescent probe.
Sequence of Rhesus PDE2A3 (B3VTJ2 1-941): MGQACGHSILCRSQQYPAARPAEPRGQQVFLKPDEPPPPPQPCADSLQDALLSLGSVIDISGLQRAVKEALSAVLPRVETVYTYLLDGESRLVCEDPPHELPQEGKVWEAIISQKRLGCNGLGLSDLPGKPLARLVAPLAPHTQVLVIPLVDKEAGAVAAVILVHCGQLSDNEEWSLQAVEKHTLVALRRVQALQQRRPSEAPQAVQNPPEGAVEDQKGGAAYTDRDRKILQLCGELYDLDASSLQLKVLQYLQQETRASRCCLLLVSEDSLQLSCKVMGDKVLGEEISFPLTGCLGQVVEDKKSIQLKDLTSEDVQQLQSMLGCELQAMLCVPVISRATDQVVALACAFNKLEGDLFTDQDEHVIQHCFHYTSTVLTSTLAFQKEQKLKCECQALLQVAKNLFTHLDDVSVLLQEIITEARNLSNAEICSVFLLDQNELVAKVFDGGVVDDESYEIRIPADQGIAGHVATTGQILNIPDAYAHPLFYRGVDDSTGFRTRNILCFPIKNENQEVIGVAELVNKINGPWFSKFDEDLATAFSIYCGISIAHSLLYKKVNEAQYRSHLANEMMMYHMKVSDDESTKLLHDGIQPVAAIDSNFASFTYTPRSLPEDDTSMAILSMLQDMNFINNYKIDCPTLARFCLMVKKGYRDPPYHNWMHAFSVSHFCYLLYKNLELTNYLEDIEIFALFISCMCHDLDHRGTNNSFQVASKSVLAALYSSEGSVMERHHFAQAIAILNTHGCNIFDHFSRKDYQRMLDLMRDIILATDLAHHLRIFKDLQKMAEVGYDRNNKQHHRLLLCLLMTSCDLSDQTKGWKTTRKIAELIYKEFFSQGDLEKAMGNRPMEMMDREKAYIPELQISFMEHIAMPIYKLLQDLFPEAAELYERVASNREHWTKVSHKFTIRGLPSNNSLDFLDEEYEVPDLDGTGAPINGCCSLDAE

Broadly, the Ki is a measure of affinity in units of concentration, obtained from inhibition or displacement. Turning to `CC(C)C(c1ccc(OC(F)F)cc1)n1nc(CF)c2c(=O)[nH]c(N(C)C)nc21` (single isomer, unassigned) [Example 184, (R)- or (S)-1-(1-(4-(Difluoromethoxy)phenyl)-2-methylpropyl)-6-(dimethylamino)-3-(fluoromethyl)-1H-pyrazolo[3,4-d]pyrimidin-4(5H)-one], the figures for the Ki at human PDE2A1 and on Rhesus PDE2A3 were 0.19 nM and 0.24 nM, respectively.
The corresponding values for `CC(C)C(c1ccc(OC(F)F)cc1)n1nc(CF)c2c(=O)[nH]c(N(C)C)nc21` (single isomer, unassigned) [Example 185, (S)- or (R)-1-(1-(4-(Difluoromethoxy)phenyl)-2-methylpropyl)-6-(dimethylamino)-3-(fluoromethyl)-1H-pyrazolo[3,4-d]pyrimidin-4(5H)-one] are 0.12 nM and 0.16 nM.
The corresponding values for `CC(c1ccc(C(F)(F)F)cc1F)n1nc(CF)c2c(=O)[nH]c(N(C)C)nc21` (single isomer, unassigned) [Example 186, (R)- or (S)-6-(Dimethylamino)-1-(1-(2-fluoro-4-(trifluoromethyl)phenyl)ethyl)-3-(fluoromethyl)-1H-pyrazolo[3,4-d]pyrimidin-4(5H)-one] are 0.13 nM and 0.14 nM.
The corresponding values for `CN(C)c1nc2c(c(CF)nn2C(c2ccc(OC(F)F)c(F)c2)C2CC2)c(=O)[nH]1` (single isomer, unassigned) [Example 188, (R)- or (S)-1-(Cyclopropyl(4-(difluoromethoxy)-3-fluorophenyl)methyl)-6-(dimethylamino)-3-(fluoromethyl)-1H-pyrazolo[3,4-d]pyrimidin-4(5H)-one] are 0.35 nM and 0.41 nM.
`CN(C)c1nc2c(c(CF)nn2C(c2ccc(OC(F)F)c(F)c2)C2CC2)c(=O)[nH]1` (single isomer, unassigned) [Example 189, (S)- or (R)-1-(Cyclopropyl(4-(difluoromethoxy)-3-fluorophenyl)methyl)-6-(dimethylamino)-3-(fluoromethyl)-1H-pyrazolo[3,4-d]pyrimidin-4(5H)-one]: the inhibition constant Ki on human PDE2A1 amounted to 0.35 nM; on Rhesus PDE2A3, 0.62 nM.
As for `CC(c1ccc(C(F)F)cc1)n1nc(CF)c2c(=O)[nH]c(N(C)C)nc21` (single isomer, unassigned) [Example 191, (S)- or (R)-1-(1-(4-(Difluoromethyl)phenyl)ethyl)-6-(dimethylamino)-3-(fluoromethyl)-1H-pyrazolo[3,4-d]pyrimidin-4(5H)-one], the Ki at human PDE2A1 stood at 0.38 nM; on Rhesus PDE2A3, 0.42 nM.
`CN(C)c1nc2c(c(CF)nn2C(c2ccc(CC(F)(F)F)cc2)C2CC2)c(=O)[nH]1` (single isomer, unassigned) [Example 192, (R)- or (S)-1-(Cyclopropyl(4-(2,2,2-trifluoroethyl)phenyl)methyl)-6-(dimethylamino)-3-(fluoromethyl)-1H-pyrazolo[3,4-d]pyrimidin-4(5H)-one]: the inhibition constant Ki on human PDE2A1 was 0.41 nM; on Rhesus PDE2A3, 0.42 nM.
For the compound `CN(C)c1nc2c(c(CF)nn2C(c2ccc(CC(F)(F)F)cc2)C2CC2)c(=O)[nH]1` (single isomer, unassigned) [Example 193, (S)- or (R)-1-(Cyclopropyl(4-(2,2.2-trifluoroethyl)phenyl)methyl)-6-(dimethylamino)-3-(fluoromethyl)-1H-pyrazolo[3,4-d]pyrimidin-4(5H)-one], the Ki came out at 0.39 nM on human PDE2A1 and 0.41 nM at Rhesus PDE2A3.
As for `CC(c1ccc(C(C)(F)F)cc1)n1nc(CF)c2c(=O)[nH]c(N(C)C)nc21` (single isomer, unassigned) [Example 195, (S)- or (R)-1-(1-(4-(1,1-Difluoroethyl)phenyl)ethyl)-6-(dimethylamino)-3-(fluoromethyl)-1H-pyrazolo[3,4-d]pyrimidin-4(5H)-one], the Ki came to 0.17 nM at human PDE2A1 and 0.14 nM on Rhesus PDE2A3.
In the case of `CC(c1ccc(C(F)F)c(F)c1)n1nc(CF)c2c(=O)[nH]c(N(C)C)nc21` (single isomer, unassigned) [Example 196, (R)- or (S)-1-(1-(4-(Difluoromethyl)-3-fluorophenyl)ethyl)-6-(dimethylamino)-3-(fluoromethyl)-1H-pyrazolo[3,4-d]pyrimidin-4(5H)-one], the results for the Ki on human PDE2A1 and at Rhesus PDE2A3 were 0.31 nM and 0.59 nM, respectively.
Regarding `CCC(c1ccc(C(F)(F)F)cc1F)n1nc(CF)c2c(=O)[nH]c(N(C)C)nc21` (single isomer, unassigned) [Example 198, (R)- or (S)-6-(Dimethylamino)-1-(1-(2-fluoro-4-(trifluoromethyl)phenyl)propyl)-3-(fluoromethyl)-1H-pyrazolo[3,4-d]pyrimidin-4(5H)-one], the Ki at human PDE2A1 worked out at 0.048 nM; at Rhesus PDE2A3, 0.068 nM.
As for `CC(C)C(c1ccc(C(F)(F)F)cc1F)n1nc(CF)c2c(=O)[nH]c(N(C)C)nc21` (single isomer, unassigned) [Example 200, (R)- or (S)-6-(Dimethylamino)-1-(1-(2-fluoro-4-(trifluoromethyl)phenyl)-2-methylpropyl)-3-(fluoromethyl)-1H-pyrazolo[3,4-d]pyrimidin-4(5H)-one], the Ki on human PDE2A1 was found to be 0.041 nM; at Rhesus PDE2A3 it was 0.07 nM.
The corresponding values for `CN(C)c1nc2c(c(CF)nn2C(c2ccc(C(F)(F)F)cc2F)C2CC2)c(=O)[nH]1` (single isomer, unassigned) [Example 202, (R)- or (S)-1-(Cyclopropyl(2-fluoro-4-(trifluoromethyl)phenyl)methyl)-6-(dimethylamino)-3-(fluoromethyl)-1H-pyrazolo[3,4-d]pyrimidin-4(5H)-one] are 0.042 nM and 0.058 nM.
As to `CN(C)c1nc2c(c(CF)nn2C(c2ccc(C(F)(F)F)cc2F)C2CC2)c(=O)[nH]1` (single isomer, unassigned) [Example 203, (S)- or (R)-1-(Cyclopropyl(2-fluoro-4-(trifluoromethyl)phenyl)methyl)-6-(dimethylamino)-3-(fluoromethyl)-1H-pyrazolo[3,4-d]pyrimidin-4(5H)-one], the Ki on human PDE2A1 turned out to be 0.61 nM; at Rhesus PDE2A3 it was 0.74 nM.
The corresponding values for `CCC(c1ccc(C(C)(F)F)cc1)n1nc(CF)c2c(=O)[nH]c(N(C)C)nc21` (single isomer, unassigned) [Example 205, (S)- or (R)-1-(1-(4-(1,1-Difluoroethyl)phenyl)propyl)-6-(dimethylamino)-3-(fluoromethyl)-1H-pyrazolo[3,4-d]pyrimidin-4(5H)-one] are 0.038 nM and 0.072 nM.
For the compound `CC(C)C(c1ccc(C(C)(F)F)cc1)n1nc(CF)c2c(=O)[nH]c(N(C)C)nc21` (single isomer, unassigned) [Example 206, (R)- or (S)-l-(1-(4-(1,1-Difluoroethyl)phenyl)-2-methylpropyl)-6-(dimethylamino)-3-(fluoromethyl)-1H-pyrazolo[3,4-d]pyrimidin-4(5H)-one], the Ki on human PDE2A1 was determined as 0.37 nM; at Rhesus PDE2A3, 0.51 nM.
In the case of `CC(C)C(c1ccc(C(C)(F)F)cc1)n1nc(CF)c2c(=O)[nH]c(N(C)C)nc21` (single isomer, unassigned) [Example 207, (S)- or (R)-1-(1-(4-(1,1-Difluoroethyl)phenyl)-2-methylpropyl)-6-(dimethylamino)-3-(fluoromethyl)-1H-pyrazolo[3,4-d]pyrimidin-4(5H)-one], the Ki came out at 0.03 nM at human PDE2A1 and 0.043 nM on Rhesus PDE2A3.
Regarding `CC(c1ccc(C(C)(F)F)cc1F)n1nc(CF)c2c(=O)[nH]c(N(C)C)nc21` (single isomer, unassigned) [Example 209, (S)- or (R)-1-(1-(4-(1,1-Difluoroethyl)-2-fluorophenyl)ethyl)-6-(dimethylamino)-3-(fluoromethyl)-1H-pyrazolo[3,4-d]pyrimidin-4(5H)-one], the Ki on human PDE2A1 was 0.077 nM; at Rhesus PDE2A3, 0.14 nM.
The corresponding values for `CN(C)c1nc2c(c(CF)nn2C(c2ccc(C(C)(F)F)cc2)C2CC2)c(=O)[nH]1` (single isomer, unassigned) [Example 212, (R)- or (S)-1-(Cyclopropyl(4-(1,1-difluoroethyl)phenyl)methyl)-6-(dimethylamino)-3-(fluoromethyl)-1H-pyrazolo[3,4-d]pyrimidin-4(5H)-one] are 0.61 nM and 0.91 nM.
Regarding `CN(C)c1nc2c(c(CF)nn2C(c2ccc(C(C)(F)F)cc2)C2CC2)c(=O)[nH]1` (single isomer, unassigned) [Example 213, (S)- or (R)-1-(Cyclopropyl(4-(1,1-difluoroethyl)phenyl)methyl)-6-(dimethylamino)-3-(fluoromethyl)-1H-pyrazolo[3,4-d]pyrimidin-4(5H)-one], the Ki came to 0.053 nM at human PDE2A1 and 0.075 nM at Rhesus PDE2A3.
With `CCC(c1ccc(C(C)(F)F)cc1F)n1nc(CF)c2c(=O)[nH]c(N(C)C)nc21` (single isomer, unassigned) [Example 214, (R)- or (S)-1-(1-(4-(1,1-Difluoroethyl)-2-fluorophenyl)propyl)-6-(dimethylamino)-3-(fluoromethyl)-1H-pyrazolo[3,4-d]pyrimidin-4(5H)-one], the Ki on human PDE2A1 stood at 0.045 nM; at Rhesus PDE2A3 it was 0.05 nM.
For `CCC(c1ccc(C(C)(F)F)c(F)c1)n1nc(CF)c2c(=O)[nH]c(N(C)C)nc21` (single isomer, unassigned) [Example 216, (R)- or (S)-1-(1-(4-(1,1-Difluoroethyl)-3-fluorophenyl)propyl)-6-(dimethylamino)-3-(fluoromethyl)-1H-pyrazolo[3,4-d]pyrimidin-4(5H)-one], in that order: 1.1 nM and 1.4 nM.
For `CCC(c1ccc(C(C)(F)F)c(F)c1)n1nc(CF)c2c(=O)[nH]c(N(C)C)nc21` (single isomer, unassigned) [Example 217, (S)- or (R)-1-(1-(4-(1,1-Difluoroethyl)-3-fluorophenyl)propyl)-6-(dimethylamino)-3-(fluoromethyl)-1H-pyrazolo[3,4-d]pyrimidin-4(5H)-one], the Ki on human PDE2A1 was 0.016 nM; at Rhesus PDE2A3, 0.027 nM.

Source of the values: patent publication US10174037B2, “Dihydropyrazolopyrimidinone compounds as PDE2 inhibitors” (Merck Sharp & Dohme Corp., priority 2015, dated 2019).
